Among the data in US10654816B2, “Compounds and compositions for treating conditions associated with NLRP activity” (NOVARTIS INFLAMMASOME RESEARCH, INC., priority 2017, dated 2020) are IC50 values, retold here.

Molecules are shown by their SMILES.

The first assay concerns IL-1β production in PMA-differentiated THP-1 cells. Nature of the assay: IL-1β production in PMA-differentiated THP-1 cells stimulated with gramicidin (hTHP-1 assay, HTRF readout; Procedures 1-3). It counts as cell-based, human. The settings on record: Homo sapiens, THP-1, hTHP-1 assay containing 2% fetal bovine serum; average; class symbols; read-out: hTHP-1 IC50 (Average IC50 of compounds in hTHP-1 assay). The procedure:
The Following Protocol is Suitable for Testing the Activity of the Compounds Disclosed Herein. Procedure 1: IL-1B Production in PMA-Differentiated THP-1 Cells Stimulated with Gramicidin.
THP-1 cells were purchased from the American Type Culture Collection and sub-cultured according to instructions from the supplier. Cells were cultured in complete RPMI 1640 (containing 10% heat inactivated FBS, penicillin (100 units/ml) and streptomycin (100 μg/ml)), and maintained in log phase prior to experimental setup. Prior to the experiment, compounds were dissolved in dimethyl sulfoxide (DMSO) to generate a 30 mM stock. The compound stock was first pre-diluted in DMSO to 3, 0.34, 0.042 and 0.0083 mM intermediate concentrations and subsequently spotted using Echo550 liquid handler into an empty 384-well assay plate to achieve desired final concentration (e.g. 100, 33, 11, 3.7, 1.2, 0.41, 0.14, 0.046, 0.015, 0.0051, 0.0017 μM). DMSO was backfilled in the plate to achieve a final DMSO assay concentration of 0.37%. The plate was then sealed and stored at room temperature until required.
THP-1 cells were treated with PMA (Phorbol 12-myristate 13-acetate) (20 ng/ml) for 16-18 hours. On the day of the experiment the media was removed and adherent cells were detached with trypsin for 5 minutes. Cells were then harvested, washed with complete RPMI 1640, spun down, and resuspended in RPMI 1640 (containing 2% heat inactivated FBS, penicillin (100 units/ml) and streptomycin (100 μg/ml). The cells were plated in the 384-well assay plate containing the spotted compounds at a density of 50,000 cells/well (final assay volume 50 μl). Cells were incubated with compounds for 1 hour and then stimulated with gramicidin (5 μM) (Enzo) for 2 hours. Plates were then centrifuged at 340 g for 5 min. Cell free supernatant (40 μL) was collected using a 96-channel PlateMaster (Gilson) and the production of IL-1β was evaluated by HTRF (cisbio). The plates were incubated for 18 h at 4° C. and read using the preset HTRF program (donor emission at 620 nm, acceptor emission at 668 nm) of the SpectraMax i3x spectrophotometer (Molecular Devices, software SoftMax 6). A vehicle only control and a dose titration of CRID3 (100-0.0017 μM) were run concurrently with each experiment.
Procedure 2: IL-1β Production in PMA-Differentiated THP-1 Cells Stimulated with Gramicidin.
THP-1 cells were purchased from the American Type Culture Collection and sub-cultured according to instructions from the supplier. Prior to experiments, cells were cultured in complete RPMI 1640 (containing 10% heat inactivated FBS, penicillin (100 units/ml) and streptomycin (100 μg/ml)), and maintained in log phase prior to experimental setup. Prior to the experiment THP-1 were treated with PMA (Phorbol 12-myristate 13-acetate) (20 ng/ml) for 16-18 hours. Compounds were dissolved in dimethyl sulfoxide (DMSO) to generate a 30 mM stock.
On the day of the experiment the media was removed and adherent cells were detached with trypsin for 5 minutes. Cells were then harvested, washed with complete RPMI 1640, spun down, resuspended in RPMI 1640 (containing 2% heat inactivated FBS, penicillin (100 units/ml) and streptomycin (100 μg/ml). The cells were plated in a 384-well plate at a density of 50,000 cells/well (final assay volume 50 μl). Compounds were first dissolved in assay medium to obtain a 5× top concentration of 500 μM. 10 step dilutions (1:3) were then undertaken in assay medium containing 1.67% DMSO. 5× compound solutions were added to the culture medium to achieve desired final concentration (e.g. 100, 33, 11, 3.7, 1.2, 0.41, 0.14, 0.046, 0.015, 0.0051, 0.0017 μM). Final DMSO concentration was at 0.37%. Cells were incubated with compounds for 1 hour and then stimulated with gramicidin (5 μM) (Enzo) for 2 hours. Plates were then centrifuged at 340 g for 5 min. Cell free supernatant (40 μL) was collected using a 96-channel PlateMaster (Gilson) and the production of IL-1β was evaluated by HTRF (cisbio). […]
A general note: In TR-FRET formats the signal depends on donor and acceptor labels being close together.
With `CC(C)(O)c1csc(S(N)(=O)=NC(=O)Nc2c3c(c(C#N)c4c2CCC4)CCC3)c1` (stereo not drawn) [Example 26, N′-(8-cyano-1,2,3,5,6,7-hexahydro-s-indacen-4-ylcarbamoyl)-4-(2-hydroxypropan-2-yl)thiophene-2-sulfonimidamide], the IC50 – broadly, the concentration at which inhibition is half-maximal – was 0.04 to 0.2 µM. With `Cc1cc(C(C)(C)O)ccc1S(N)(=O)=NC(=O)Nc1c(C(C)C)cc(OC(F)F)cc1C1CC1` (stereo not drawn) [Example 29, N′-(2-cyclopropyl-4-(difluoromethoxy)-6-isopropylphenylcarbamoyl)-4-(2-hydroxypropan-2-yl)-2-methylbenzenesulfonimidamide], the half-maximal inhibitory concentration (IC50) was 5 to 30 µM. `Cn1ncc2cc(S(N)(=O)=NC(=O)Nc3c4c(cc5c3CCC5)CCC4)ccc21` (stereo not drawn) [Example 273, N′-(1,2,3,5,6,7-hexahydro-s-indacen-4-ylcarbamoyl)-1-methyl-1H-indazole-5-sulfonimidamide]: the half-maximal inhibitory concentration (IC50) fell in the range of 5 to 30 µM. The same measure, in the same setting: the value for `CC(C)(O)c1ncc(S(N)(=O)=NC(=O)Nc2c3c(cc4c2C(O)CC4)CCC3)s1` (single isomer, unassigned) [Example 370, (R, R/S) or (S, R/S)-N′-((3-hydroxy-1,2,3,5,6,7-hexahydro-s-indacen-4-yl)carbamoyl)-2-(2-hydroxypropan-2-yl)thiazole-5-sulfonimidamide] was 0.2 to 1 µM. Take `Cc1cc(C(C)(C)O)sc1S(N)(=O)=NC(=O)Nc1c(C(C)C)cc(OC(F)F)cc1C(C)C` (stereo not drawn) [Example 24, N′-(4-(difluoromethoxy)-2,6-diisopropylphenylcarbamoyl)-5-(2-hydroxypropan-2-yl)-3-methylthiophene-2-sulfonimidamide]: the half-inhibitory concentration (IC50) fell in the range of 1 to 5 µM. As to `C#CCCC(=O)N(C)Cc1ccc(S(N)(=O)=NC(=O)Nc2c3c(cc4c2CCC4)CCC3)cc1` (stereo not drawn) [Example 261, N-(4-(N′-((1,2,3,5,6,7-hexahydro-s-indacen-4-yl)carbamoyl)sulfamidimidoyl)benzyl)-N-methylpent-4-ynamide], the 50% inhibitory concentration (IC50) fell in the range of 1 to 5 µM. For `CC(C)(O)c1ccc(F)c(S(N)(=O)=NC(=O)Nc2c3c(c(F)c4c2CCC4)CCC3)c1` (stereo not drawn) [Example 55, 2-fluoro-N′-((8-fluoro-1,2,3,5,6,7-hexahydro-s-indacen-4-yl)carbamoyl)-5-(2-hydroxypropan-2-yl)benzenesulfonimidamide], the half-inhibitory concentration (IC50) is 0.2 to 1 µM.

As for `CC(C)c1cc(F)cc(C(C)C)c1NC(=O)N=S(N)(=O)c1ccc(CN(C)C)cc1` (single isomer, unassigned) [Example 132, (S)- or (R)-4-((dimethylamino)-methyl)-N′-(4-fluoro-2,6-diisopropylphenylcarbamoyl)-benzenesulfonimidamide], the half-maximal inhibitory concentration (IC50) is 1 to 5 µM. In the case of `CNS(=O)(=NC(=O)Nc1c2c(cc3c1CCC3)CCC2)c1cc(C(C)(C)O)cs1` (stereo not drawn) [Example 246], the concentration for half-maximal inhibition (IC50) lay in the range of 5 to 30 µM.

For the compound `CC(C)(O)c1ncc(S(N)(=O)=NC(=O)Nc2c3c(cc4c2CCC4O)CCC3)s1` (stereo not drawn) [Example 230], the concentration for half-maximal inhibition (IC50) is 1 to 5 µM. For `CC(C)(O)c1ccc(S(N)(=O)=NC(=O)Nc2c3c(cc4c2CCC4)CCC3)cn1` (stereo not drawn) [Example 260, N′-((1,2,3,5,6,7-hexahydro-s-indacen-4-yl)carbamoyl)-6-(2-hydroxypropan-2-yl)pyridine-3-sulfonimidamide], the concentration for half-maximal inhibition (IC50) was in the range of 0.2 to 1 µM. As for `CC(C)(O)c1ncc(S(N)(=O)=NC(=O)Nc2c3c(cc4c2CCC4O)CCC3)s1` (single isomer, unassigned) [Example 337, (R, R) or (R, S)-N′-((l-hydroxy-1,2,3,5,6,7-hexahydro-s-indacen-4-yl)carbamoyl)-2-(2-hydroxypropan-2-yl)thiazole-5-sulfonimidamide], the IC50 fell in the range of 1 to 5 µM. For the compound `CN(C)S(=O)(=NC(=O)Nc1c2c(cc3c1CCC3)CCC2)c1cc(C(C)(C)O)cs1` (stereo not drawn) [Example 245], the IC50 was 5 to 30 µM. With `CN(C)Cc1cccc(S(N)(=O)=NC(=O)Nc2c3c(cc4c2CCC4)CCC3)c1` (stereo not drawn) [Example 51, 3-((dimethylamino)methyl)-N′-(1,2,3,5,6,7-hexahydro-s-indacen-4-ylcarbamoyl)benzene-sulfonimidamide], the half-inhibitory concentration (IC50) lay within 1 to 5 µM. The same measure, in the same setting: the value for `COC1CN(Cc2ccc(S(N)(=O)=NC(=O)Nc3c4c(cc5c3CCC5)CCC4)cc2)C1` (stereo not drawn) [Example 231] was 1 to 5 µM; that for `CC(C)(O)c1cccc(S(N)(=O)=NC(=O)Nc2c3c(c(F)c4c2CCC4)CCC3)c1` (stereo not drawn) [Example 34, N′-(8-fluoro-1,2,3,5,6,7-hexahydro-s-indacen-4-ylcarbamoyl)-3-(2-hydroxypropan-2-yl)benzenesulfonimidamide] was 1 to 5 µM; that for `CC(C)c1cc(F)cc(C(C)C)c1NC(=O)N=S(N)(=O)c1ccc(S(C)(=O)=O)cc1` (stereo not drawn) [Example 42, N′-(4-fluoro-2,6-diisopropylphenylcarbamoyl)-4-(methylsulfonyl)benzenesulfonim idamide] was 5 to 30 µM. Same read-out and setting: under `Cc1oc(S(N)(=O)=NC(=O)Nc2c3c(nc4c2CCC4)CCC3)cc1C(C)(C)O` (stereo not drawn) [Example 221, N′-((1,2,3,5,6,7-hexahydrodicyclopenta[b,e]pyridin-8-yl)carbamoyl)-4-(2-hydroxypropan-2-yl)-5-methylfuran-2-sulfonimidamide] stands 0.04 to 0.2 µM.

Still in this assay, the particulars now being: Homo sapiens, THP-1, hTHP-1 assay containing 2% fetal bovine serum; average; given as bound; read-out: hTHP-1 IC50 (Average IC50 of compounds in hTHP-1 assay).
Consider `CC(C)c1cc(F)cc(C(C)C)c1NC(=O)N=S(N)(=O)c1ccc(C(C)(C)O)cc1` (single isomer, unassigned) [Example 84, (R)- or (S)-N′-(4-fluoro-2,6-diisopropylphenylcarbamoyl)-4-(2-hydroxypropan-2-yl)benzenesulfonimidamide], for which the IC50 was more than 30 µM. The same measure, in the same setting: under `CC(C)c1csc(S(N)(=O)=NC(=O)Nc2c3c(cc4c2CCC4)CCC3)c1` (single isomer, unassigned) [Example 406, (S) or (R)-N′-((1,2,3,5,6,7-hexahydro-s-indacen-4-yl)carbamoyl)-4-isopropylthiophene-2-sulfonimidamide] stands more than 30 µM; under `CC(C)c1cc(F)cc(C(C)C)c1NC(=O)N=S(N)(=O)c1ccc2c(c1)OCO2` (stereo not drawn) [Example 216, N′-((4-fluoro-2,6-diisopropyl-phenyl)carbamoyl)benzo[d][1,3]dioxole-5-sulfonimidamide], more than 30 µM; under `COC1CN(Cc2ccc(S(N)(=O)=NC(=O)Nc3c4c(cc5c3CCC5)CCC4)cc2)C1` (single isomer, unassigned) [Example 380, (S) or (R)-N′-((1,2,3,5,6,7-hexahydro-s-indacen-4-yl)carbamoyl)-4-((3-methoxyazetidin-1-yl)methyl)benzene-sulfonimidamide], more than 30 µM. Regarding `CCc1ccc2cn(C)nc2c1NC(=O)N=S(N)(=O)c1ncc(C(C)(C)O)s1` (single isomer, unassigned) [Example 329, (S) or (R)-N′-((6-ethyl-2-methyl-2H-indazol-7-yl)carbamoyl)-5-(2-hydroxypropan-2-yl)thiazole-2-sulfonimidamide], the IC50 is more than 30 µM.

The same assay, now with this note: Homo sapiens, THP-1, hTHP-1 assay containing 2% fetal bovine serum; average; numeric bound printed without unit; read-out: hTHP-1 IC50 (Average IC50 of compounds in hTHP-1 assay).
As for `CCc1ccc2cn[nH]c2c1NC(=O)N=S(N)(=O)c1cnc(C(C)(C)O)s1` (single isomer, unassigned) [Example 325, (S) or (R)-N′-((6-ethyl-1H-indazol-7-yl)carbamoyl)-2-(2-hydroxypropan-2-yl)thiazole-5-sulfonimidamide], the half-inhibitory concentration (IC50) is more than 28.4 µM.
